Experimental data: article doi:10.1101/2025.10.20.683491v1 (biorxiv, 2025)

Target: hERG channel (Homo sapiens, UniProt Q12809, species not given)
Assay: hERG channel inhibition assay
Type: cell-based

hERG channel, sequence (Q12809 whole entry): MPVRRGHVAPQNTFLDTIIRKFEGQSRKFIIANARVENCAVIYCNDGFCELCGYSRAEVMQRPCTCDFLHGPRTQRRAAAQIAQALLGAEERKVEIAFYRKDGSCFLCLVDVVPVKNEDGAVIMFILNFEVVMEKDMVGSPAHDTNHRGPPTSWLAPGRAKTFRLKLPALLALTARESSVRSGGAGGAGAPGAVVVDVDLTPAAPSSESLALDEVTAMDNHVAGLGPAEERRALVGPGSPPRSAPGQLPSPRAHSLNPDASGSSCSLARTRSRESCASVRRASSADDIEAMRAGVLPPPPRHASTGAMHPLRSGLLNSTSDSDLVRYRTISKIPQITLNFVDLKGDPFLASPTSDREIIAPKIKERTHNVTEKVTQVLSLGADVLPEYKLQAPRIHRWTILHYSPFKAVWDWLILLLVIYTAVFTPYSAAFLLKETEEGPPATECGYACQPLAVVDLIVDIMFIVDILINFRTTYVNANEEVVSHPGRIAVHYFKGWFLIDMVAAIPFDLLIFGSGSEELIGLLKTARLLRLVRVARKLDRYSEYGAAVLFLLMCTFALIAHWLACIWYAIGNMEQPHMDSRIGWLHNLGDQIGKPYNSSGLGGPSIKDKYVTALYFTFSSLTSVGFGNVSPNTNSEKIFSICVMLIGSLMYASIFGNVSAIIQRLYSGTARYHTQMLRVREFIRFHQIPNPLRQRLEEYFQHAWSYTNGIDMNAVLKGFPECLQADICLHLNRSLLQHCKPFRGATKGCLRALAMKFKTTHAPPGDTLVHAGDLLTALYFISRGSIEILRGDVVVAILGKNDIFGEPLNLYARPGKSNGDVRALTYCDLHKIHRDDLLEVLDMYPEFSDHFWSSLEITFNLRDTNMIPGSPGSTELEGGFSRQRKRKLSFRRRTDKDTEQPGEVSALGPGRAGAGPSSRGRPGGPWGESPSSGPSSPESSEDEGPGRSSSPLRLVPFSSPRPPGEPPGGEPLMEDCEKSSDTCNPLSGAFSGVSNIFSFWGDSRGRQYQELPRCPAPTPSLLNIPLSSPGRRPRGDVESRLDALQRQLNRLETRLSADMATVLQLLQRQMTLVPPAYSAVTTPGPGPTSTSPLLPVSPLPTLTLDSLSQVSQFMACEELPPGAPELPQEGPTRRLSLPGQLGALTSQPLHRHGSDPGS

Q: With CNC(=O)C[C@@H](NC(=O)C[C@H](Cc1c[nH]c2ccccc12)NC(=O)[C@@H]1CCCC[C@H]1NCc1cnc(-c2sc(C)nc2C)o1)c1ccccc1 [DEL-C1] as the compound, how does the IC50 read?
A: > 100 µM
